The values below come from PubChem BioAssay (NCI).

Test systems include MOLT-4 leukemia; COLO 205 colon; SK-MEL-5 melanoma; PC-3 prostate; ACHN renal; NCI-H23 lung; HOP-62 NSCLC; CAKI-1 renal; MALME-3M melanoma; IGROV1 ovarian; LOX IMVI melanoma; RXF 393 renal; NCI-H460 lung; OVCAR-3 ovarian; OVCAR-5 ovarian; HOP-92 NSCLC; MDA-N; HCT-15 colon; MDA-MB-231 breast.
What all share (assay): growth of human tumour cells (NCI), 48 h

SMILES strings stand for the structures.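 Values below derive from 48-hour exposures of cells grown in 96-well plates, with endpoints linearly interpolated between the two concentrations bracketing the appropriate inhibition level. At the TGI there is no net growth.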

As to `COC(=O)C1(Cc2ccccc2)Cc2cc3c(cc2C1O)CCC3` (stereo not given), the TGI with MOLT-4 leukemia was found to be 42.9 µM; in the experiment with COLO 205 colon it was 48.1 µM; in the experiment on SK-MEL-5 melanoma, 29.3 µM; in the experiment on PC-3 prostate it was 37.3 µM; in the experiment on ACHN renal, 31.9 µM; in the experiment on NCI-H23 lung, 38.4 µM. For the same compound, the TGI with HOP-62 NSCLC was 36.9 µM; in the experiment on CAKI-1 renal, 31.3 µM; in the experiment on MALME-3M melanoma, 30.7 µM; in the experiment with IGROV1 ovarian, 32.1 µM; in the experiment on LOX IMVI melanoma it was 34.7 µM; with RXF 393 renal, 32.5 µM. In addition, the TGI in the experiment on NCI-H460 lung is over 100 µM; in the experiment with OVCAR-3 ovarian it was 31.7 µM; with OVCAR-5 ovarian, 30.4 µM; with HOP-92 NSCLC it was 30.6 µM; with MDA-N, 34.6 µM; in the experiment on HCT-15 colon, over 100 µM. In addition, the TGI in the experiment on MDA-MB-231 breast is 38.1 µM.

In the case of `CC[C@]12C=CCN3CC[C@@]4(c5cc(Br)c(OC)cc5N(C)[C@H]4[C@@](O)(C(=O)NC(Cc4c[nH]c5ccccc45)C(=O)OC)[C@@H]1O)[C@@H]32` (stereo not given in full), the TGI is over 100 µM in the experiment on MOLT-4 leukemia; 21 µM with COLO 205 colon; 75.8 µM in the experiment on SK-MEL-5 melanoma; over 100 µM in the experiment on PC-3 prostate; over 100 µM with ACHN renal; over 100 µM in the experiment on NCI-H23 lung. Also, the TGI in the experiment on HOP-62 NSCLC is over 100 µM; in the experiment with CAKI-1 renal, over 100 µM; with MALME-3M melanoma, over 100 µM; with IGROV1 ovarian, over 100 µM; with LOX IMVI melanoma, 90.9 µM; in the experiment on RXF 393 renal, 98.6 µM. Moreover, the TGI in the experiment with OVCAR-3 ovarian, in the experiment with OVCAR-5 ovarian, in the experiment on HOP-92 NSCLC, in the experiment on MDA-N, in the experiment with HCT-15 colon and in the experiment with MDA-MB-231 breast was over 100 µM each time.

Take `NC1=Nc2ccccc2Sc2cccc(F)c21`: the TGI with MOLT-4 leukemia, in the experiment with COLO 205 colon, in the experiment on SK-MEL-5 melanoma, in the experiment with PC-3 prostate, in the experiment on ACHN renal and in the experiment on NCI-H23 lung was over 100 µM each time. Further, the TGI with HOP-62 NSCLC, in the experiment on CAKI-1 renal, in the experiment with MALME-3M melanoma, in the experiment with IGROV1 ovarian, in the experiment with LOX IMVI melanoma and with RXF 393 renal was over 100 µM each time. Further, the TGI in the experiment with NCI-H460 lung, in the experiment with OVCAR-3 ovarian, in the experiment with OVCAR-5 ovarian, with HOP-92 NSCLC, with MDA-N and in the experiment on HCT-15 colon was over 100 µM throughout. Besides, the TGI with MDA-MB-231 breast was over 100 µM.

Consider `Nc1ccn(C2CCC(COP(=O)(O)OCC(O)COP(=O)(O)OCC3OC(n4cc(F)c(=O)[nH]c4=O)CC3O)O2)c(=O)n1` (stereo not given), for which the TGI in the experiment with MOLT-4 leukemia is over 100 µM; with COLO 205 colon, over 100 µM; in the experiment with SK-MEL-5 melanoma, over 21 µM; in the experiment on PC-3 prostate, over 100 µM; in the experiment on ACHN renal it was over 100 µM; in the experiment with NCI-H23 lung, over 100 µM. The TGI with HOP-62 NSCLC, in the experiment with CAKI-1 renal, in the experiment with MALME-3M melanoma, in the experiment with IGROV1 ovarian, in the experiment on LOX IMVI melanoma and in the experiment on RXF 393 renal was over 100 µM in each case. Further, the TGI in the experiment with NCI-H460 lung is over 100 µM; with OVCAR-3 ovarian it was over 100 µM; with OVCAR-5 ovarian it was over 100 µM; with HOP-92 NSCLC, 4.59 µM; in the experiment on MDA-N, over 100 µM; in the experiment with HCT-15 colon, over 100 µM. Also, the TGI in the experiment on MDA-MB-231 breast was over 100 µM.

As to `CCOC(=O)c1nc2cc(Cl)ccc2[nH]c1=O`, the TGI in the experiment on MOLT-4 leukemia, with COLO 205 colon, in the experiment on SK-MEL-5 melanoma, in the experiment with PC-3 prostate, in the experiment on ACHN renal and in the experiment on NCI-H23 lung was over 100 µM in each case. The TGI with HOP-62 NSCLC, with CAKI-1 renal, with MALME-3M melanoma, in the experiment with IGROV1 ovarian, in the experiment with LOX IMVI melanoma and with RXF 393 renal was over 100 µM throughout. Moreover, the TGI in the experiment with NCI-H460 lung, in the experiment with OVCAR-3 ovarian, with OVCAR-5 ovarian, in the experiment on HOP-92 NSCLC, in the experiment with MDA-N and with HCT-15 colon was over 100 µM throughout. In the experiment with MDA-MB-231 breast, the TGI is over 100 µM.

For `O=c1/c(=C/c2ccccn2)sc2nc3cc4c(cc3n12)OCCO4`, the TGI with MOLT-4 leukemia, in the experiment on COLO 205 colon, in the experiment on SK-MEL-5 melanoma, with PC-3 prostate, with ACHN renal and with NCI-H23 lung was over 100 µM throughout. Also, the TGI in the experiment with HOP-62 NSCLC, in the experiment on CAKI-1 renal, in the experiment on MALME-3M melanoma, in the experiment on IGROV1 ovarian, in the experiment with LOX IMVI melanoma and with RXF 393 renal was over 100 µM throughout. In addition, the TGI with NCI-H460 lung, in the experiment on OVCAR-3 ovarian, in the experiment with OVCAR-5 ovarian, in the experiment on HOP-92 NSCLC, in the experiment on MDA-N and in the experiment on HCT-15 colon was over 100 µM in each case. The compound also gave a TGI in the experiment with MDA-MB-231 breast of over 100 µM.

As for `COc1ccc(N2C(=O)/C(=C/c3ccc(N(CCC#N)CCC#N)cc3)N=C2c2ccccc2)cc1`, the TGI in the experiment on MOLT-4 leukemia, in the experiment with COLO 205 colon, in the experiment with SK-MEL-5 melanoma, with PC-3 prostate, in the experiment on ACHN renal and in the experiment on HOP-62 NSCLC was over 100 µM in each case. Moreover, the TGI in the experiment on CAKI-1 renal, with MALME-3M melanoma, in the experiment with IGROV1 ovarian, with LOX IMVI melanoma, in the experiment with RXF 393 renal and with NCI-H460 lung was over 100 µM each time. The TGI with OVCAR-3 ovarian, with OVCAR-5 ovarian, with HOP-92 NSCLC, in the experiment on MDA-N, in the experiment on HCT-15 colon and with MDA-MB-231 breast was over 100 µM each time.

As to `O=C(NC1C/C(=N/O)c2c(Br)sc(Br)c21)C(F)(F)F` (stereo not given), the TGI in the experiment with MOLT-4 leukemia is over 100 µM; in the experiment with COLO 205 colon it was over 100 µM; with SK-MEL-5 melanoma it was 54.4 µM; with PC-3 prostate, 45.6 µM; in the experiment with ACHN renal it was over 100 µM; with NCI-H23 lung it was over 100 µM. Moreover, the TGI with CAKI-1 renal was 58 µM; in the experiment with MALME-3M melanoma it was over 100 µM; with IGROV1 ovarian it was over 100 µM; with LOX IMVI melanoma it was over 100 µM; in the experiment with RXF 393 renal, over 100 µM; in the experiment with NCI-H460 lung, 97.2 µM. The TGI in the experiment with OVCAR-3 ovarian was over 100 µM; in the experiment on OVCAR-5 ovarian it was over 100 µM; in the experiment on HOP-92 NSCLC, 32.9 µM; in the experiment with MDA-N it was over 100 µM; with HCT-15 colon, over 100 µM; with MDA-MB-231 breast, 30.9 µM.

For `N#CC1=C(N)N(/N=C/c2ccco2)C(c2ccco2)C1(C#N)C#N` (stereo not given), the TGI with MOLT-4 leukemia is 30.3 µM; in the experiment on COLO 205 colon, 28.9 µM; in the experiment on SK-MEL-5 melanoma it was 29.3 µM; with PC-3 prostate, 48.5 µM; in the experiment with ACHN renal it was 30.2 µM; in the experiment with NCI-H23 lung, 35.8 µM. For the same compound, the TGI is 51.1 µM in the experiment with HOP-62 NSCLC; 37.9 µM in the experiment with CAKI-1 renal; 43.4 µM with MALME-3M melanoma; 30 µM in the experiment with IGROV1 ovarian; 28.2 µM with LOX IMVI melanoma; 25.8 µM with RXF 393 renal. For the same compound, the TGI in the experiment on OVCAR-3 ovarian came to 39 µM; with OVCAR-5 ovarian, 41.7 µM; with HOP-92 NSCLC it was 33.5 µM; in the experiment with MDA-N it was 37.4 µM; in the experiment on HCT-15 colon, 38.8 µM; in the experiment on MDA-MB-231 breast, 38.6 µM.

`CCOC(=O)c1cc(C)nc2c1c(=O)n(-c1ccccc1)c(=O)n2CCCCN1CCN(c2ncccn2)CC1`: the TGI in the experiment on MOLT-4 leukemia, with COLO 205 colon, in the experiment on SK-MEL-5 melanoma, in the experiment on PC-3 prostate, in the experiment with ACHN renal and with NCI-H23 lung was over 100 µM throughout. In addition, the TGI in the experiment with HOP-62 NSCLC was over 100 µM; with CAKI-1 renal it was 83.8 µM; in the experiment with MALME-3M melanoma, over 100 µM; in the experiment on IGROV1 ovarian it was over 100 µM; in the experiment with LOX IMVI melanoma, over 100 µM; with RXF 393 renal, over 100 µM. The TGI with OVCAR-3 ovarian, with OVCAR-5 ovarian, with HOP-92 NSCLC, in the experiment with MDA-N and in the experiment with MDA-MB-231 breast was over 100 µM each time.

In the case of `CSc1nc(NCc2ccccc2)c2cnn(COCCO)c2n1`, the TGI with MOLT-4 leukemia was 86.7 µM; with COLO 205 colon, 85.7 µM; in the experiment on SK-MEL-5 melanoma, over 100 µM; in the experiment on PC-3 prostate, over 100 µM; in the experiment with ACHN renal, 62.1 µM; with NCI-H23 lung, over 100 µM. Also, the TGI in the experiment with HOP-62 NSCLC, with CAKI-1 renal, in the experiment with MALME-3M melanoma, with IGROV1 ovarian, with LOX IMVI melanoma and with RXF 393 renal was over 100 µM each time. Besides, the TGI in the experiment with NCI-H460 lung, in the experiment on OVCAR-3 ovarian, in the experiment with OVCAR-5 ovarian, with HOP-92 NSCLC, with MDA-N and in the experiment with MDA-MB-231 breast was over 100 µM each time.

As for `CN1C(=O)C23CCCC2CC1(c1ccccc1)S3` (stereo not given), the TGI with MOLT-4 leukemia, in the experiment on COLO 205 colon, with SK-MEL-5 melanoma, in the experiment on PC-3 prostate, in the experiment with ACHN renal and with NCI-H23 lung was over 100 µM throughout. Moreover, the TGI in the experiment on HOP-62 NSCLC, in the experiment on CAKI-1 renal, in the experiment with MALME-3M melanoma, in the experiment with IGROV1 ovarian, with LOX IMVI melanoma and in the experiment on RXF 393 renal was over 100 µM throughout. In addition, the TGI with OVCAR-3 ovarian, with OVCAR-5 ovarian, in the experiment on HOP-92 NSCLC, with MDA-N, in the experiment on HCT-15 colon and in the experiment with MDA-MB-231 breast was over 100 µM each time.
